Measurements as given in the supplement of paper PMC10307832.

How the values were obtained:
Assay in all cases: relative viability (nuclei count vs DMSO), 5 days (fraction); higher = more cells survive
[1] = system: LCLC-97TM1
Outline: (§1)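 Relative viability divides the nuclei count in treated wells by that in vehicle wells. Lung cancer cell lines were seeded in 1536-well plates, dosed by pin tool the next day, and fixed and stained after 5 days in one step with final 0.05% Triton X-100, 1% formaldehyde and 1 ug/ml Hoechst. Dosing was a single drug or a fixed anchor-drug dose plus five library-drug doses (not always all listed) in √10 steps, and values are medians of duplicate plates imaged at 4×.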

[2] = system: HARA
Outline: as §1

[3] = system: NCI-H1793
Outline: as §1

[4] = system: NCI-H1666
Outline: as §1

[5] = system: H3255
Outline: as §1

[6] = system: NCI-H441
Outline: as §1

[7] = system: HOP-62
Outline: as §1

[8] = system: NCI-H596
Outline: as §1

[9] = system: LXF-289
Outline: as §1

[10] = system: NCI-H2087
Outline: as §1

[11] = system: COR-L23
Outline: as §1

[12] = system: NCI-H1437
Outline: as §1

[13] = system: EPLC-272H
Outline: as §1

[14] = system: NCI-H1650
Outline: as §1

[15] = system: NCI-H1395
Outline: as §1

[16] = system: ChaGo-K-1
Outline: as §1

[17] = system: PC-14
Outline: as §1

[18] = system: HCC-78
Outline: as §1

[19] = system: NCI-H2085
Outline: as §1

[20] = system: NCI-H3122
Outline: as §1

[21] = system: NCI-H2126
Outline: as §1

[22] = system: NCI-H1944
Outline: as §1

[23] = system: NCI-H661
Outline: as §1

Cc1cn(-c2cc(NC(=O)c3ccc(C)c(Nc4nccc(-c5cccnc5)n4)c3)cc(C(F)(F)F)c2)cn1 [Nilotinib] + O=C(CCCCCCC(=O)Nc1ccccc1)NO [Vorinostat] (partner 1 µM)
relative viability ([1]; first compound 0.001 µM): 0.605
relative viability ([1]; first compound 0.003162 µM): 0.891
relative viability ([1]; first compound 0.01 µM): 0.964
relative viability ([1]; first compound 0.03162 µM): 0.515
relative viability ([1]; first compound 0.1 µM): 0.102
relative viability ([2]; first compound 0.001 µM): 0.544
relative viability ([2]; first compound 0.003162 µM): 0.668
relative viability ([2]; first compound 0.01 µM): 0.507
relative viability ([2]; first compound 0.03162 µM): 0.401
relative viability ([2]; first compound 0.1 µM): 0.423
relative viability ([3]; first compound 0.001 µM): 0.64
relative viability ([3]; first compound 0.003162 µM): 0.841
relative viability ([3]; first compound 0.01 µM): 0.688
relative viability ([3]; first compound 0.03162 µM): 0.386
relative viability ([3]; first compound 0.1 µM): 0.257
relative viability ([4]; first compound 0.001 µM): 0.942
relative viability ([4]; first compound 0.003162 µM): 1.11
relative viability ([4]; first compound 0.01 µM): 1.17
relative viability ([4]; first compound 0.03162 µM): 1.11
relative viability ([4]; first compound 0.1 µM): 1.17
relative viability ([5]; first compound 0.001 µM): 0.743
relative viability ([5]; first compound 0.003162 µM): 0.706
relative viability ([5]; first compound 0.03162 µM): 0.764
relative viability ([5]; first compound 0.1 µM): 0.429
relative viability ([6]; first compound 0.001 µM): 0.544
relative viability ([6]; first compound 0.003162 µM): 1.02
relative viability ([6]; first compound 0.01 µM): 0.742
relative viability ([6]; first compound 0.03162 µM): 0.532
relative viability ([6]; first compound 0.1 µM): 0.71
relative viability ([7]; first compound 0.001 µM): 0.625
relative viability ([7]; first compound 0.003162 µM): 0.567
relative viability ([7]; first compound 0.01 µM): 0.631
relative viability ([7]; first compound 0.03162 µM): 0.479
relative viability ([8]; first compound 0.001 µM): 0.518
relative viability ([8]; first compound 0.003162 µM): 0.455
relative viability ([8]; first compound 0.01 µM): 0.651
relative viability ([8]; first compound 0.03162 µM): 0.532
relative viability ([8]; first compound 0.1 µM): 0.498
relative viability ([9]; first compound 0.001 µM): 0.693
relative viability ([9]; first compound 0.003162 µM): 0.994
relative viability ([9]; first compound 0.01 µM): 0.882
relative viability ([9]; first compound 0.03162 µM): 0.869
relative viability ([9]; first compound 0.1 µM): 0.534
relative viability ([10]; first compound 0.001 µM): 0.707
relative viability ([10]; first compound 0.003162 µM): 0.709
relative viability ([10]; first compound 0.01 µM): 1.23
relative viability ([10]; first compound 0.03162 µM): 0.567
relative viability ([10]; first compound 0.1 µM): 0.543
relative viability ([11]; first compound 0.001 µM): 0.317
relative viability ([11]; first compound 0.003162 µM): 0.347
relative viability ([11]; first compound 0.01 µM): 0.406
relative viability ([11]; first compound 0.03162 µM): 0.373
relative viability ([11]; first compound 0.1 µM): 0.392
relative viability ([12]; first compound 0.001 µM): 0.664
relative viability ([12]; first compound 0.003162 µM): 0.97
relative viability ([12]; first compound 0.01 µM): 0.878
relative viability ([12]; first compound 0.03162 µM): 0.506
relative viability ([12]; first compound 0.1 µM): 0.583
relative viability ([13]; first compound 0.001 µM): 0.376
relative viability ([13]; first compound 0.003162 µM): 0.331
relative viability ([13]; first compound 0.01 µM): 0.37
relative viability ([13]; first compound 0.03162 µM): 0.407
relative viability ([13]; first compound 0.1 µM): 0.579
relative viability ([14]; first compound 0.001 µM): 0.49
relative viability ([14]; first compound 0.003162 µM): 0.733
relative viability ([14]; first compound 0.01 µM): 0.746
relative viability ([14]; first compound 0.03162 µM): 0.488
relative viability ([14]; first compound 0.1 µM): 0.528
relative viability ([15]; first compound 0.001 µM): 0.728
relative viability ([15]; first compound 0.01 µM): 0.616
relative viability ([15]; first compound 0.03162 µM): 0.59
relative viability ([15]; first compound 0.1 µM): 0.473
relative viability ([16]; first compound 0.001 µM): 0.654
relative viability ([16]; first compound 0.003162 µM): 0.979
relative viability ([16]; first compound 0.01 µM): 0.804
relative viability ([16]; first compound 0.03162 µM): 0.733
relative viability ([16]; first compound 0.1 µM): 0.4
relative viability ([17]; first compound 0.001 µM): 0.594
relative viability ([17]; first compound 0.003162 µM): 0.378
relative viability ([17]; first compound 0.01 µM): 0.756
relative viability ([17]; first compound 0.03162 µM): 0.604
relative viability ([17]; first compound 0.1 µM): 0.156
relative viability ([18]; first compound 0.001 µM): 0.483
relative viability ([18]; first compound 0.003162 µM): 0.512
relative viability ([18]; first compound 0.01 µM): 0.553
relative viability ([18]; first compound 0.03162 µM): 0.4
relative viability ([18]; first compound 0.1 µM): 0.565
relative viability ([19]; first compound 0.001 µM): 0.833
relative viability ([19]; first compound 0.003162 µM): 0.776
relative viability ([19]; first compound 0.01 µM): 0.784
relative viability ([19]; first compound 0.03162 µM): 0.753
relative viability ([19]; first compound 0.1 µM): 0.598
relative viability ([20]; first compound 0.001 µM): 0.85
relative viability ([20]; first compound 0.003162 µM): 1.47
relative viability ([20]; first compound 0.01 µM): 1.07
relative viability ([20]; first compound 0.03162 µM): 0.89
relative viability ([20]; first compound 0.1 µM): 0.851
relative viability ([21]; first compound 0.001 µM): 0.754
relative viability ([21]; first compound 0.003162 µM): 0.888
relative viability ([21]; first compound 0.01 µM): 0.864
relative viability ([21]; first compound 0.03162 µM): 0.764
relative viability ([21]; first compound 0.1 µM): 0.476
relative viability ([22]; first compound 0.001 µM): 0.558
relative viability ([22]; first compound 0.003162 µM): 0.795
relative viability ([22]; first compound 0.01 µM): 0.671
relative viability ([22]; first compound 0.03162 µM): 0.481
relative viability ([22]; first compound 0.1 µM): 0.457
relative viability ([23]; first compound 0.001 µM): 0.792
relative viability ([23]; first compound 0.003162 µM): 0.889
relative viability ([23]; first compound 0.01 µM): 0.875
relative viability ([23]; first compound 0.03162 µM): 0.642
relative viability ([23]; first compound 0.1 µM): 0.615
